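Tested at 5 concentrations; 48 h exposure; 96-well plates; endpoints linearly interpolated, else capped at highest concentration. Abbreviation: GI50, concentration required for 50% inhibition of growth. TGI marks complete inhibition of growth.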
What was measured:
Assay in all cases: inhibition of tumour cell growth, NCI panel, 48 h
A498 renal = system: A498 renal
CAKI-1 renal = system: CAKI-1 renal
CCRF-CEM leukemia = system: CCRF-CEM leukemia
OVCAR-4 ovarian = system: OVCAR-4 ovarian
RPMI-8226 leukemia = system: RPMI-8226 leukemia
TK-10 renal = system: TK-10 renal
HT29 colon = system: HT29 colon
SK-MEL-2 melanoma = system: SK-MEL-2 melanoma
MDA-MB-435 = system: MDA-MB-435
LOX IMVI melanoma = system: LOX IMVI melanoma

Compound	TGI (A498 renal) [µM]	TGI (CAKI-1 renal) [µM]	TGI (CCRF-CEM leukemia) [µM]	TGI (OVCAR-4 ovarian) [µM]	TGI (RPMI-8226 leukemia) [µM]	TGI (TK-10 renal) [µM]	TGI (HT29 colon) [µM]	TGI (SK-MEL-2 melanoma) [µM]	TGI (MDA-MB-435) [µM]	TGI (LOX IMVI melanoma) [µM]	GI50 (A498 renal) [µM]	GI50 (CAKI-1 renal) [µM]	GI50 (MDA-MB-435) [µM]	GI50 (OVCAR-4 ovarian) [µM]	GI50 (TK-10 renal) [µM]	GI50 (HT29 colon) [µM]	GI50 (CCRF-CEM leukemia) [µM]	GI50 (RPMI-8226 leukemia) [µM]	GI50 (LOX IMVI melanoma) [µM]	GI50 (SK-MEL-2 melanoma) [µM]
NC(=O)N/N=C(\C(=O)C(=O)Nc1ccc(Cl)c(C(F)(F)F)c1)c1nc2ccc(C(=O)c3ccccc3)cc2[nH]c1=O	> 100	> 100	> 100	> 100	> 100	> 100	> 100	> 100	–	–	–	–	–	–	–	–	–	–	–	–
COc1ccc2c(c1)CCc1c(-c3noc4c3CCc3cc(OC)ccc3-4)noc1-2	> 100	> 100	–	> 100	> 100	> 100	> 100	> 100	> 100	> 100	–	–	–	–	–	–	–	–	–	–
COc1ccc(C(=O)N2CCc3c([nH]c4ccccc34)C2C(=O)O)o1 (stereo unspecified)	> 10	> 10	> 10	> 10	> 10	> 10	> 10	–	> 10	–	–	–	–	–	–	–	–	–	–	–
N=C1N(c2ccccc2)C(=O)C23CCCC2C13N1CCOCC1 (stereo unspecified)	–	> 100	> 100	> 100	> 100	–	> 100	> 100	–	–	–	–	–	–	–	–	–	–	–	–
CCCCCCCC/C=C/CCCCCCCC1=NC(C)(C)CN1C(C)C	5.21	2.38	–	2.98	–	2.79	1.86	–	3.01	–	2.04	1.16	1.6	1.63	1.45	0.576	–	–	–	–
CCC(C)OC(=O)C1C2CCC(O2)C1C(=O)O (stereo unspecified)	> 100	> 100	> 100	> 100	> 68.7	> 100	> 66.2	> 100	–	> 58.3	–	–	–	–	–	–	–	–	–	–
COC1C=CC(C(=O)[N+]2=Cc3[nH]c4ccccc4c3CC2)O1 (stereo unspecified)	> 100	> 100	76.6	> 100	> 100	> 100	> 100	> 100	–	> 100	–	–	–	–	–	–	–	–	–	–
Cc1cc(O)c(C(c2cccnc2)c2c(O)cc(C)[nH]c2=O)c(=O)[nH]1	–	> 100	> 100	> 100	> 100	> 100	> 100	–	> 100	> 100	–	–	–	–	–	–	–	–	–	–
COC(=O)C1(C(=O)OC)CC2c3c(c4ccccc4n3C)CC(C1=O)N2Cc1ccccc1 (stereo unspecified)	> 100	> 100	> 100	> 100	> 100	> 100	> 100	> 100	–	> 100	–	–	–	–	–	–	–	–	–	–
COC(=O)C(=O)C(C(=O)C(=O)Nc1ccc(Cl)cc1C)c1nc2ccc(C(=O)c3ccccc3)cc2[nH]c1=O (stereo unspecified)	> 100	> 100	> 100	> 100	> 100	> 100	> 100	> 100	–	> 100	–	–	–	–	–	–	–	–	–	–
Cc1ccccc1NC(=O)C(=O)C(c1cnc2ccc([N+](=O)[O-])cc2n1)[N+](=O)[O-] (stereo unspecified)	> 100	> 100	> 100	> 100	> 100	> 100	> 100	> 100	–	> 100	–	–	–	–	–	–	–	–	–	–
COC(=O)/C(C#N)=C1\CCC(O)N1C (stereo unspecified)	–	> 100	> 100	> 100	> 100	> 100	> 100	> 100	–	> 100	–	–	–	–	–	–	–	–	–	–
COc1ccc(/C(C)=C(\c2ccc(Cl)cc2)c2ccc(OCCN3CCCC3)cc2)cc1F	–	6.69	10.7	6.62	9.23	8.13	3.47	8.4	4.65	3.66	–	3.43	1.48	3.21	3.58	0.724	4.24	3.57	1.04	4.27
COC(=O)N/N=C(/CCN1CCCC1)CC(c1ccccc1)c1c(O)c2ccccc2oc1=O (stereo unspecified)	> 100	> 100	> 100	> 100	> 100	> 100	> 100	> 100	–	> 100	–	–	–	–	–	–	–	–	–	–
C=C[C@]1(C)CCC2=C(CCC3C2(C)CCC[C@]3(C)CO)C1 (stereo partly specified)	> 100	> 100	> 100	> 100	> 100	> 100	48	> 100	–	68	–	–	–	–	–	–	–	–	–	–
Oc1ccc(CNCc2ccccc2)c2cccnc12	> 100	> 100	0.343	> 100	0.768	–	> 100	–	> 100	> 100	–	–	–	–	–	–	–	–	–	–
CC(=O)NC(CCCCNC(=O)N(CCCl)N=O)C(=O)NCc1ccccc1 (stereo unspecified)	–	> 100	> 100	> 100	> 100	–	> 100	> 100	–	–	–	–	–	–	–	–	–	–	–	–
O=C1C(=O)N(C(=O)c2ccc(Cl)c(Cl)c2)c2ccc(Cl)cc21	63.8	–	> 100	> 100	> 100	> 100	> 100	–	–	> 100	–	–	–	–	–	–	–	–	–	–
COc1cc(-c2cc(=O)c3ccccc3o2)ccc1N	> 100	77.5	> 100	> 100	> 100	> 100	> 100	> 100	–	> 100	–	–	–	–	–	–	–	–	–	–
COc1cc2nc(Sc3c([N+](=O)[O-])ncn3C)[nH]c2cc1OC	> 100	37.2	–	> 100	> 100	67.3	> 100	–	–	> 100	–	–	–	–	–	–	–	–	–	–
Cc1n[nH]c(=S)n1/N=C/c1ccc(F)c(Oc2ccccc2)c1	–	0.944	> 100	> 100	> 100	> 100	> 100	–	77.1	> 100	–	0.496	28.6	44.9	43.9	27.5	40.5	42.7	51.1	–
C#CCOCn1cnc2c(=S)nc[nH]c21	> 100	> 100	> 100	> 100	> 100	> 100	> 100	> 100	–	> 100	–	–	–	–	–	–	–	–	–	–
C/C=C/C=N/N(C(=O)c1cc([N+](=O)[O-])cc([N+](=O)[O-])c1)C1=NC(c2ccccc2)C(c2ccccc2)=NN1 (stereo unspecified)	> 100	> 100	> 100	> 100	> 100	> 100	> 100	> 100	–	> 100	–	–	–	–	–	–	–	–	–	–
